From paper PMC8584303 (International Journal of Molecular Sciences, 2021)

Key:
LdGSTu1 [1] = molecular target: T1, LdGSTu1 (Leptinotarsa decemlineata, UniProt A0A1P8PEY0); assay: inhibition of GSH-CDNB conjugation by the recombinant enzyme (residual activity at […]); type: biochemical
T1 construct: full-length LdGSTu1
T1 sequence (A0A1P8PEY0 1-230): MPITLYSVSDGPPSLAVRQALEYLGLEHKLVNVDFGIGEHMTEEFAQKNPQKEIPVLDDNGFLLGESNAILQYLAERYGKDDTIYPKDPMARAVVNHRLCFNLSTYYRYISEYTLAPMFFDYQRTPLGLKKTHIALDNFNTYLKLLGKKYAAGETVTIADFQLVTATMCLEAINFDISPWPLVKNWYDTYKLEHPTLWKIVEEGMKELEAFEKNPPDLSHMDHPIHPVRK

LdGSTu1 [2] = molecular target: T1, LdGSTu1; assay: steady-state enzyme kinetics of the purified enzyme (Km); type: biochemical
LdGSTu1 [3] = molecular target: T1, LdGSTu1; assay: inhibition of GSH-CDNB conjugation by the recombinant enzyme (residual activity […] at […], […] at […]); type: biochemical
[4] = substrate: CC(=O)Oc1ccc([N+](=O)[O-])cc1; assay: steady-state enzyme kinetics of the purified enzyme (Km); type: biochemical, Leptinotarsa decemlineata; details: GSH

## C/C(=N\C#N)N(C)Cc1ccc(Cl)nc1 [acetamiprid]
LdGSTu1 [1]
  %: 39.1% residual activity at 5 mM

## O=[N+]([O-])c1ccc(Cl)c([N+](=O)[O-])c1 [CDNB, 1-chloro-2,4-dinitrobenzene]
LdGSTu1 [2]
  Km: 542 ± 88 µM

## C=C(CC)C(=O)c1ccc(OCC(=O)O)c(Cl)c1Cl [EA, ethacrynic acid]
LdGSTu1 [3]
  %: 49.6% residual activity at 200 µM

## CN1COCN(Cc2cnc(Cl)s2)/C1=N\[N+](=O)[O-] [thiamethoxam]
LdGSTu1 [1]
  %: 72.3% residual activity at 5 mM

## CCOP(=S)(OCC)Oc1cc(C)nc(C(C)C)n1 [diazinon]
LdGSTu1 [1]
  %: 75.3% residual activity at 5 mM

## O=[N+]([O-])NC1=NCCN1Cc1ccc(Cl)nc1 [imidacloprid]
LdGSTu1 [1]
  %: 66.4% residual activity at 5 mM

## CCOP(=S)(OCC)Oc1nc(Cl)c(Cl)cc1Cl [chlorpyrifos]
LdGSTu1 [1]
  %: 70.5% residual activity at 5 mM

B1: LdGSTu1 (Leptinotarsa decemlineata) (protein)
chain: MPITLYSVSDGPPSLAVRQALEYLGLEHKLVNVDFGIGEHMTEEFAQKNPQKEIPVLDDNGFLLGESNAILQYLAERYGKDDTIYPKDPMARAVVNHRLCFNLSTYYRYISEYTLAPMFFDYQRTPLGLKKTHIALDNFNTYLKLLGKKYAAGETVTIADFQLVTATMCLEAINFDISPWPLVKNWYDTYKLEHPTLWKIVEEGMKELEAFEKNPPDLSHMDHPIHPVRK
notes: full-length LdGSTu1
[4]
  Km: 1830 ± 572 µM
  Vmax: 13.5 µM/min
  kcat: 0.128 ± 0.0202 s⁻¹
  kcat/Km: 70 M⁻¹ s⁻¹
